Experimental data published in PubChem BioAssay AID1845196 (Molecular Pharmacology Branch, DTP, NCI, 2023).

System: 292921-168-R tumor spheroid viability
Test: Anticancer human tumor 292921-168-R patient-derived pancreatic carcinoma cell line growth inhibition
Conditions: spheroids with HUVEC and MSC; for IC50: curve of first compound; for viability, T/C: stronger effect = lower value
From the text: Multicellular complex tumor spheroid response to DNA repair inhibitors in combination with DNA-damaging drugs
This study explores the anticancer activities of DNA-damaging drugs and inhibitors of DNA damage repair, both as single agents and in combinations. Complex tumor spheroids comprised of malignant cells, endothelial cells and mesenchymal stem cells served as an in vitro model for human solid tumors. This model system incorporates physiologically relevant features and patient-derived or established malignant cell lines with clinically relevant genetic alterations from many tumor types. Twenty-six patient-derived or established malignant cell lines were evaluated representing sarcoma, melanoma, small cell lung cancer (SCLC), non-small cell lung cancer (NSCLC), as well as bladder, ovarian and pancreatic cancers. The concentration ranges selected for each drug and investigational agent were based upon clinically achievable concentrations if the clinical Cmax of the agent was known.
Compounds. The drugs and compounds olaparib (NSC753686), talazoparib (NSC767125), berzosertib (NSC777718), elimusertib (NSC800525), nedisertib (NSC802822), VX-984 (NSC792969), AZD-1390 (NSC803789), temozolomide (NSC362856), topotecan (NSC609699), trabectedin (NSC813783), staurosporine (NSC755774), and gemcitabine (NSC613327) were obtained from the National Cancer Institute (NCI) Developmental Therapeutics Program Chemical Repository. The FDA-approved anticancer drug set is available from the Developmental Therapeutics Program at https://dtp.cancer.gov/organization/dscb/obtaining/available_plates.htm. […] The stock solutions were prepared in dimethyl sulfoxide (DMSO, Sigma-Aldrich, St. Louis, MO, cat. D2650) at 400-fold the tested concentration and stored at -70 degrees C. Prior to their use, the stock solutions were diluted in fresh medium and the final DMSO concentration in the assay was 0.25% (v/v). All drugs and investigational agents were tested over a range starting from a high concentration at or near the clinical Cmax and decreasing in half-log increments. If the clinical Cmax for an agent had not been determined, the highest concentration tested was 10 microM.
Cell Lines. The patient-derived cancer cell (PDC) lines: 156681-154-R-J1-PDC, 283228-195-R-J1-PDC, 287954-098-R-J1-PDC, 292921-168-R-J2-PDC, 349418-098-R-PDC, 425362-245-T-J1-PDC, 556581-035-R-J1-PDC, and BL0293-F563-PDC were received from the NCI Patient-Derived Models Repository (PDMR, https://pdmr.cancer.gov). The established cell lines HS-SY-2 (RRID:CVCL_8719), MPNST, and SYO-1 (RRID:CVCL_7146) were obtained from the Sloan Kettering Institute. The alveolar soft parts sarcoma cell line ASPS-1 (RRID:CVCL_S738) was established at the NCI and grown from internal seed stocks. The following established cell lines were purchased from the American Type Culture Collection (ATCC, Manassas, VA): G-401 (ATCC, cat. CRL-1441, RRID:CVCL_0270), SW982 (ATCC, cat. HTB-93, RRID:CVCL_1734), VA-ES-BJ (ATCC, cat. CRL-2138, RRID:CVCL_1785), NCI-H719 (ATCC, cat. CRL-5837, RRID:CVCL_1582), NCI-H196 (ATCC, cat. CRL-5823, RRID:CVCL_1509), NCI-H841 (ATCC, cat. CRL-5845, RRID:CVCL_1595), NCI-H1618 (ATCC, cat. CRL-5879, RRID:CVCL_1480), NCI-H1876 (ATCC, cat. CRL-5902, RRID:CVCL_1503), DMS 114 (ATCC, cat. CRL-2066; RRID:CVCL_1174), NCI-H211 (ATCC, cat. CRL-5824; RRID:CVCL_1529), and SW 1271 (ATCC, cat. CRL-2177, RRID:CVCL_1716). The small cell lung cancer cell line COR-L88 was purchased from Sigma-Aldrich (cat. 92031917-1VL, RRID:CVCL_1141). The non-small cell lung cancer cell lines NCI-H226 (RRID:CVCL_1544) and NCI-H322M (RRID:CVCL_1557) were established at the NCI and grown from internal seed stocks. Pooled donor human umbilical vein endothelial cells (HUVEC, Lonza, cat. CC-2519) and human mesenchymal stem cells (hMSC, Lonza, cat. PT-2501) were purchased from Lonza (Walkersville, MD).
Cell Culture. All cells were maintained in an incubator at 37 degrees C and 5% CO2 with 95% humidity. […]
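Also: spheroids exposed to compounds for 7 days.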

SMILES: Cc1cc(C)c(CNC(=O)c2cc(-c3ccc(CN4CCOCC4)cc3)cc3c2cnn3C2CCCC2)c(=O)[nH]1 + CC[C@@]1(O)C(=O)OCc2c1cc1n(c2=O)Cc2cc3c(CN(C)C)c(O)ccc3nc2-1
- IC50 (second compound 0.003 µM): > 10 µM
- IC50 (second compound 0.00949 µM): > 10 µM
- IC50 (second compound 0.03 µM): < 0.0316 µM
- IC50 (second compound 0.0949 µM): < 0.0316 µM
- IC50 (second compound 0.3 µM): < 0.0316 µM
- viability, T/C (second compound 0.003 µM, first compound 0.0316 µM): 87.6%
- viability, T/C (second compound 0.003 µM, first compound 0.1 µM): 78.4%
- viability, T/C (second compound 0.003 µM, first compound 0.316 µM): 84.7%
- viability, T/C (second compound 0.003 µM, first compound 1 µM): 82.2%
- viability, T/C (second compound 0.003 µM, first compound 3.16 µM): 85.9%
- viability, T/C (second compound 0.003 µM, first compound 10 µM): 50.9%
- viability, T/C (second compound 0.00949 µM, first compound 0.0316 µM): 76.9%
- viability, T/C (second compound 0.00949 µM, first compound 0.1 µM): 77.2%
- viability, T/C (second compound 0.00949 µM, first compound 0.316 µM): 76%
- viability, T/C (second compound 0.00949 µM, first compound 1 µM): 71.7%
- viability, T/C (second compound 0.00949 µM, first compound 3.16 µM): 64.8%
- viability, T/C (second compound 0.00949 µM, first compound 10 µM): 53%
- viability, T/C (second compound 0.03 µM, first compound 0.0316 µM): 32.5%
- viability, T/C (second compound 0.03 µM, first compound 0.1 µM): 37.8%
- viability, T/C (second compound 0.03 µM, first compound 0.316 µM): 34.9%
- viability, T/C (second compound 0.03 µM, first compound 1 µM): 35.5%
- viability, T/C (second compound 0.03 µM, first compound 3.16 µM): 28.6%
- viability, T/C (second compound 0.03 µM, first compound 10 µM): 27.8%
- viability, T/C (second compound 0.0949 µM, first compound 0.0316 µM): 14.8%
- viability, T/C (second compound 0.0949 µM, first compound 0.1 µM): 14.2%
- viability, T/C (second compound 0.0949 µM, first compound 0.316 µM): 14.2%
- viability, T/C (second compound 0.0949 µM, first compound 1 µM): 13.4%
- viability, T/C (second compound 0.0949 µM, first compound 3.16 µM): 14.1%
- viability, T/C (second compound 0.0949 µM, first compound 10 µM): 13.1%
- viability, T/C (second compound 0.3 µM, first compound 0.0316 µM): 3.97%
- viability, T/C (second compound 0.3 µM, first compound 0.1 µM): 4.78%
- viability, T/C (second compound 0.3 µM, first compound 0.316 µM): 4.87%
- viability, T/C (second compound 0.3 µM, first compound 1 µM): 5.2%
- viability, T/C (second compound 0.3 µM, first compound 3.16 µM): 5.56%
- viability, T/C (second compound 0.3 µM, first compound 10 µM): 6.73%

SMILES: O=C(c1cc(Cc2n[nH]c(=O)c3ccccc23)ccc1F)N1CCN(C(=O)C2CC2)CC1 + CC[C@@]1(O)C(=O)OCc2c1cc1n(c2=O)Cc2cc3c(CN(C)C)c(O)ccc3nc2-1
- IC50 (second compound 0.003 µM): 5.58 µM
- IC50 (second compound 0.00949 µM): 3.25 µM
- IC50 (second compound 0.03 µM): < 0.0949 µM
- IC50 (second compound 0.0949 µM): < 0.0949 µM
- IC50 (second compound 0.3 µM): < 0.0949 µM
- viability, T/C (second compound 0.003 µM, first compound 0.0949 µM): 85.8%
- viability, T/C (second compound 0.003 µM, first compound 0.3 µM): 84.9%
- viability, T/C (second compound 0.003 µM, first compound 0.949 µM): 83.2%
- viability, T/C (second compound 0.003 µM, first compound 3 µM): 71.3%
- viability, T/C (second compound 0.003 µM, first compound 9.49 µM): 31.7%
- viability, T/C (second compound 0.003 µM, first compound 30 µM): 25.6%
- viability, T/C (second compound 0.00949 µM, first compound 0.0949 µM): 58.6%
- viability, T/C (second compound 0.00949 µM, first compound 0.3 µM): 55%
- viability, T/C (second compound 0.00949 µM, first compound 0.949 µM): 58.4%
- viability, T/C (second compound 0.00949 µM, first compound 3 µM): 51.2%
- viability, T/C (second compound 0.00949 µM, first compound 9.49 µM): 31.1%
- viability, T/C (second compound 0.00949 µM, first compound 30 µM): 23.9%
- viability, T/C (second compound 0.03 µM, first compound 0.0949 µM): 22.6%
- viability, T/C (second compound 0.03 µM, first compound 0.3 µM): 22.7%
- viability, T/C (second compound 0.03 µM, first compound 0.949 µM): 20.4%
- viability, T/C (second compound 0.03 µM, first compound 3 µM): 19.9%
- viability, T/C (second compound 0.03 µM, first compound 9.49 µM): 18.1%
- viability, T/C (second compound 0.03 µM, first compound 30 µM): 18.6%
- viability, T/C (second compound 0.0949 µM, first compound 0.0949 µM): 10.1%
- viability, T/C (second compound 0.0949 µM, first compound 0.3 µM): 11.3%
- viability, T/C (second compound 0.0949 µM, first compound 0.949 µM): 11.2%
- viability, T/C (second compound 0.0949 µM, first compound 3 µM): 10%
- viability, T/C (second compound 0.0949 µM, first compound 9.49 µM): 8.85%
- viability, T/C (second compound 0.0949 µM, first compound 30 µM): 10.6%
- viability, T/C (second compound 0.3 µM, first compound 0.0949 µM): 4.24%
- viability, T/C (second compound 0.3 µM, first compound 0.3 µM): 4.06%
- viability, T/C (second compound 0.3 µM, first compound 0.949 µM): 4.61%
- viability, T/C (second compound 0.3 µM, first compound 3 µM): 4.65%
- viability, T/C (second compound 0.3 µM, first compound 9.49 µM): 3.41%
- viability, T/C (second compound 0.3 µM, first compound 30 µM): 3.89%
